Measurements published in US12234288B2, “Immunogenic arginase 2 polypeptides” (IO Biotech ApS, priority 2018, dated 2025).
Entries after “also recorded” stand apart in the source; their conditions may differ.

System: PBMCs from healthy donors and cancer patients
Assay: IFNγ ELISPOT of PBMCs pre-stimulated one week in vitro with peptide and low-dose IL-2
Format: cell-based, human
Details: for IFNγ ELISPOT response: ARG2 peptide library screen, PBMCs from 6 healthy donors, FIG. 3
Method: For in vitro ELISPOT, PBMCs from cancer patients and healthy donors were pulsed with 20 μM of […] (or with no peptide as a control) and 120 U/ml IL-2 in 24-well plates for 7 days before being used in an ELISPOT assay. The cells were placed in 96-well nitrocellulose ELISPOT plates (MultiScreen MAIP N45; Millipore) pre-coated with IFNγ capture antibody (Mabtech). Arginase peptides added to a final concentration of 5 μM and plates incubated at 37° C. for 14-16 hours. After the incubation the cells were washed off and secondary biotinylated Ab (Mabtech, cat. 3420-{6-1000) was added for 2 hours at room temperature. Unbound secondary antibody was washed off and streptavidin conjugated alkaline phosphatase (AP) (Mabtech, cat. 3310-10) was added for 1 hour at room temperature. Unbound conjugated enzyme was washed off and the assay was developed by adding BCIP/NBT substrate (Mabtech, cat. 3650-10). Developed ELISPOT plates were analyzed on CTL ImmunoSpot S6 Ultimate-V analyzer using Immunospot software v5.1. Responses were reported as the difference between average numbers of spots in wells stimulated with arginase2 and wells without added peptide.
To test whether these peptides could be used to identify Arginase2 responses, PBMCs from 12 healthy donors and one cancer patients were screened for responses in IFNγ ELISPOT. PBMCs were stimulated with Arginase2 peptides and low dose IL-2 for 1 week prior to ELISPOT.
The entire arginase2 protein sequence was divided into overlapping 20-amino-acid-long peptides (with a final peptide of 24 amino acids), generating a library of 34 peptides covering the whole sequence (SEQ ID NOs 1-34)). Each peptide in the library overlapped with the first 10 amino acids of the following peptide. Using this arginase2 peptide library and the IFNγ ELISPOT assay, we next screened PBMCs from 6 healthy donors for spontaneous responses. The PBMCs were stimulated for one week with a pool of 3-4 adjacent 20-mer arginase2 library peptides and low-dose IL-2 (120 U/mL). They were then set up for an IFNγ ELISPOT assay to screen for responses against each 20-mer peptide separately.
PBMCs from two healthy donors were stimulated for one week with a single peptide and low-dose IL-2 (120 U/mL) before IFNy ELISPOTassay to validate the responses observed in the library screen.
PBMCs from […] were stimulated for one week with a single peptide and low-dose IL-2 (120 U/mL) before IFNy ELISPOTassay to validate the responses observed in the library screen. ARG2_1, ARG2_5, ARG2_13, ARG2_18 and ARG2_22 were tested in this validation.
ARG2_1 was used to screen for responses in 8 melanoma patients (AA07-AA31), 4 prostate cancer patients (UR07-27) and 13 healthy donors. PBMCs from each were stimulated for one week with a single peptide and low-dose IL-2 (120 U/mL) before IFNy ELISPOT assay.
PBMCs from healthy donors or cancer patients were stimulated with 10 μM of ARG2-derived peptides in vitro to enhance assay sensitivity. On day 2, IL-2 was added to a total of 120 U/ml IL-2 (Novartis). After 7 days, 4-6×10^5 PBMCs were placed at the bottom of an ELISPOT plate pre-coated with IFNy capture antibody (Mabtech). PBMCs from each donor or patient were set up in triplicates or quadruplicates for peptide (5 μM ARG2-derived peptide) and control stimulations. Cells were incubated in ELISPOT plates in the presence of an antigen for 14-16 hrs after which they were washed off and secondary biotinylated antibody (Mabtech) was added. After two hour incubation the secondary antibody was washed off before addition of streptavidin conjugated alkaline phosphatase (Mabtech) for 1 hr. Next, unbound enzyme was washed off and the assay was developed by adding BCIP/NBT subtrate (Mabtech). Developed ELISPOT plates were analyzed on CTL Immunospot S6 Ultimate-V analyzer with ImmunoSpot software, version 5.1. […]

Row | Sequence | donors with significant IFNy ELISPOT responses (8 melanoma patients, 4 prostate cancer patients and 13 healthy donors (15 out of 25), FIG. 8) | screened donors with significant IFNy ELISPOT responses (33 HDs and 19 cancer patients with solid tumors, FIG. 14A) | IFNγ ELISPOT response (listed as ARG2-1) | IFNγ ELISPOT response (listed as Arg2_1) | AML patients with a significant IFNy ELISPOT response (PBMCs from patients diagnosed with AML, FIG. 14A) | IFNy ELISPOT response (healthy donors and cancer patients, FIG. 14) | IFNy ELISPOT response (validation of other regions, PBMCs from four healthy donors, FIG. 5) | IFNy ELISPOT response (validation of other regions, PBMCs from four healthy donors, FIG. 5, listed as Arg2_1) | donors in which A2L2 immune responses were higher than ARG2-1 responses (6 healthy donors, not significant (p=0.0625), FIG. 15B) | IFNy ELISPOT response (30 healthy donors and 18 cancer patients, FIG. 15) | donors with IFNy ELISPOT responses (30 healthy donors and 18 cancer patients, FIG. 15C) | IFNy ELISPOT response to long peptides (PBMCs from 6 healthy donors stimulated once, FIG. 15A) | immune responses compared to ARG2-1 responses in the same donor (not significant (p=0.7038), FIG. 15E)
1 | LQTRVHSILKKSVHSVAVIG (listed as Homo sapiens) [ARG2_1, polypeptide derived from human Arginase2, aa11-30] | 60% | around 75% | highest and most frequent responses | highest responses | 3 out of 9 | Strong and frequent responses; also recorded: widely recognized | Strong and prominent responses | strong and prominent responses |  |  |  |  | 
2 | SLRGSLSRLLQTRVHSILKKSVHSVAVIGAPFS (listed as Homo sapiens) [A2L2, long ARG2 peptide, aa2-34, 33-mer] |  |  |  |  |  |  |  |  | 5 out of 6 | strong and frequent CD4+ T-cell responses | about 80% | strongest and most frequent immune responses | on average higher
